Measurements from patent US6022851A, “Lantibiotic related to actagardine, and processes for the preparation and use thereof” (priority 1997, dated 2000).
Where two headings read alike, the source gives them in different places.

Columns and labels:
Solubility = type: physicochemical; settings: in methanol and water
Stability in solution = type: physicochemical
S. epidermidis 012GO20 = assay: in-vitro antibacterial activity (MIC), incubation time 18 h; type: cell-based; settings: incubation time 18 h
Text: (§1) Tables 4 to 6 show the in-vitro antibacterial activity (MIC values[μg/ml]) of the actagardine (Acta) and of the compounds according to the invention.

E. faecalis 02D2HM9 = assay: as above; type: cell-based; settings: incubation time 18 h
Text: as §1

S. mitis 02mitGR16 = assay: as above; type: cell-based; settings: incubation time 18 h
Text: as §1

S. aureus 0121O64 = assay: as above; type: cell-based; settings: incubation time 18 h
Text: as §1

S. pneumoniae 030BI2 = assay: as above; type: cell-based; settings: incubation time 18 h
Text: as §1

E. faecalis 02D2HT10 = assay: as above; type: cell-based; settings: incubation time 18 h
Text: as §1

S. pyogenes 02A1FI6 = assay: as above; type: cell-based; settings: incubation time 18 h
Text: as §1

E. faecalis 02D2UC5 = assay: as above; type: cell-based; settings: incubation time 18 h
Text: as §1

S. epidermidis 012GO42 = assay: as above; type: cell-based; settings: incubation time 18 h
Text: as §1

S. milleri 02milGR12 = assay: as above; type: cell-based; settings: incubation time 18 h
Text: as §1

S. pyogenes O2A1SJ1 = assay: as above; type: cell-based; settings: incubation time 18 h
Text: as §1

E. faecalis 02D2DU18 = assay: as above; type: cell-based; settings: incubation time 18 h
Text: as §1

[1] = system: Staph. coag. negative 012HT5; assay: as above; type: cell-based; settings: incubation time 18 h
Text: as §1

S. aureus 011DU5 = assay: as above; type: cell-based; settings: incubation time 18 h
Text: as §1

S. pyogenes 02A1UC1 = assay: as above; type: cell-based; settings: incubation time 18 h
Text: as §1

S. aureus 011HT3 = assay: as above; type: cell-based; settings: incubation time 18 h
Text: as §1

Strepto gr. G 02G0CB2 = assay: as above; type: cell-based; settings: incubation time 18 h
Text: as §1

S. aureus 011HT18 = assay: as above; type: cell-based; settings: incubation time 18 h
Text: as §1

S. aureus 011HT1 = assay: as above; type: cell-based; settings: incubation time 18 h
Text: as §1

E. Coli = type: cell-based; settings: incubation time 24 h
Text: as §1

S. pyogenes A561 = type: cell-based; settings: incubation time 24 h
Text: as §1

S. aureus Exp54146 = type: cell-based; settings: incubation time 24 h
Text: as §1

S. aureus SG511 = type: cell-based; settings: incubation time 24 h
Text: as §1

## CC[C@H](C)[C@@H]1NC(=O)C2NC(=O)[C@H](CC(C)C)NC(=O)C(NC(=O)C3CSCC(NC(=O)[C@H](C)N)C(=O)N[C@@H](CO)C(=O)NCC(=O)N[C@@H](Cc4c[nH]c5ccccc45)C(=O)N[C@@H](C(C)C)C(=O)N3)C(C)SCC(NC(=O)[C@H](CCC(=O)O)NC1=O)C(=O)NCC(=O)NC1C(=O)N[C@@H](C(C)C)C(=O)N[C@@H]([C@@H](C)CC)C(=O)NC(CSC2C)C(=O)N[C@@H](C)C(=O)NC(C(=O)O)C[S+]([O-])C1C (stereo partly shown) [Ala(0)-actagardine]
Tolerability / toxicity
  cytotoxic actions or other toxicities: not observed
Tolerability / toxicity; at the active concentration and above
  tolerability: good
Solubility
  solubility: soluble
Stability in solution; in neutral and mildly alkaline medium
  stability: Stable
Stability in solution; in strongly acidic and strongly alkaline solution
  stability: unstable

## di-Boc-Lys(0)-actagardine [Boc--Lys--Acta]
S. epidermidis 012GO20
  MIC values: > 40 µg/mL
E. faecalis 02D2HM9
  MIC values: > 40 µg/mL
S. mitis 02mitGR16
  MIC values: 5 µg/mL
S. aureus 0121O64
  MIC values: > 40 µg/mL
S. pneumoniae 030BI2
  MIC values: 1.2 µg/mL
E. faecalis 02D2HT10
  MIC values: > 40 µg/mL
S. pyogenes 02A1FI6
  MIC values: <= 0.04 μg/ml
E. faecalis 02D2UC5
  MIC values: 40 µg/mL
S. epidermidis 012GO42
  MIC values: > 40 µg/mL
S. milleri 02milGR12
  MIC values: 5 µg/mL
S. pyogenes O2A1SJ1
  MIC values: 0.08 µg/mL
E. faecalis 02D2DU18
  MIC values: 10 µg/mL
[1]
  MIC values: > 40 µg/mL
S. aureus 011DU5
  MIC values: 40 µg/mL
S. pyogenes 02A1UC1
  MIC values: <= 0.04 μg/ml
S. aureus 011HT3; S. aureus 011HT3 + 10% serum
  MIC values: 20 µg/mL
S. aureus 011HT3; S. aureus 011HT3 + 50% serum
  MIC values: 40 µg/mL
S. aureus 011HT3; S. aureus 011HT3
  MIC values: 10 µg/mL
Strepto gr. G 02G0CB2
  MIC values: 2.5 µg/mL
S. aureus 011HT18
  MIC values: > 40 µg/mL
S. aureus 011HT1
  MIC values: 10 µg/mL
E. Coli
  MIC values: > 40 µg/mL
S. pyogenes A561
  MIC values: <= 0.04 μg/ml
S. aureus Exp54146
  MIC values: 10 µg/mL
S. aureus SG511; S. aureus SG511 + 10% serum
  MIC values: 10 µg/mL
S. aureus SG511; S. aureus SG511
  MIC values: 2.5 µg/mL
